Legend:
epileptic Wistar rats = settings: cited from earlier work
pyramidal cells = assay: Penicillin-induced "epileptic" hippocampus section preparation; format: cell-based; settings: concentration of 6 μM
Procedure: The novel GABAB -antagonists according to the invention interact at the GABAB -receptor with IC50 values of approximately 10^-8 M (mol/l) and above in the corticocerebral membranes of rats. […] The antagonism towards baclofen can also be shown in vitro in electrophysiological models, for example in the penicillin-induced "epileptic" hippocampus section preparation in which baclofen in a concentration of 6 μM (micromol/liter) inhibits "epilepsy-like" discharges from pyramidal cells. The compounds according to the invention act as antagonists of baclofen action in concentrations of about 10 to about 100 μM (micromol/liter). In vivo the antagonism can be shown by ionto-phoresis of baclofen in rat cerebral cortex and by systemic use of antagonists in doses of from 10 to 100 mg/kg. In doses of about 30 mg/kg, antagonism occurs towards the muscle-relaxant action of baclofen, which is measured in the Rotarod model.

Compound | doses that reduce the spike and wave discharges in dependence upon dosage (epileptic Wistar rats) [mg/kg] | also measured
NC(=O)N1c2ccccc2C=Cc2ccccc21 [Carbamazepine] | – | effect on spike and wave discharges / attacks (epileptic Wistar rats): ineffective or worsen the attacks at higher doses
CCC1(c2ccccc2)C(=O)NC(=O)NC1=O [Phenobarbitone] | – | effect at 20 mg/kg (epileptic Wistar rats; 20 mg/kg): ineffective
NCC(CC(=O)O)c1ccc(Cl)cc1 (centres unmarked) [baclofen] | – | effect on "epilepsy-like" discharges from pyramidal cells (pyramidal cells): inhibits
CN1C(=O)CN=C(c2ccccc2)c2cc(Cl)ccc21 [diazepam] | ≥ 0.5 | –
CCC1(C)CC(=O)NC1=O (centres unmarked) [ethosuximide] | ≥ 25 | –
O=C1NC(=O)C(c2ccccc2)(c2ccccc2)N1 [phenytoin] | – | effect on spike and wave discharges / attacks (epileptic Wistar rats): ineffective or worsen the attacks at higher doses
CCCC(CCC)C(=O)[O-].[Na+] [sodium valproate] | ≥ 50 | –
CN1C(=O)OC(C)(C)C1=O [trimethadione] | ≥ 50 | –
